These results are taken from patent US8962596B2 (Array BioPharma Inc., priority 2010, dated 2015).

Type in all cases: biochemical
Assay [1] concerns the target T1, Human Tyk2 kinase domain (Homo sapiens, UniProt P29597).
T1 construct: comprising amino acids 886 to 1187 with 10 additional histidine residues; 10xHis (histidine tag) (C, cleaved yes); made in house
T1 sequence (P29597 886-1187): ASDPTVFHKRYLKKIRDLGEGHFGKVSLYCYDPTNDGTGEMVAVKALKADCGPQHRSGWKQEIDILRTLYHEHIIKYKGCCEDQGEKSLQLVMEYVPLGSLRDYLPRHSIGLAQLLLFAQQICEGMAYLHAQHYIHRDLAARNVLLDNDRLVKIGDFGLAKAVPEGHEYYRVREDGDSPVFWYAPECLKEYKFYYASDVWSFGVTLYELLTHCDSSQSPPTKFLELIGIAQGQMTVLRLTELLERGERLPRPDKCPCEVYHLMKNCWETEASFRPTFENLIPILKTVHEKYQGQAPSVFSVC
Put plainly: Tyk2 Inhibition Assay (Omnia kinase fluorescence peptide substrate assay). As to conditions: averaged IC50 ranges; assay of Example A; 10 μM (Km app) or 1 mM ATP, 2 nM Tyk2. In a few lines:
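2 nM His-tag-cleaved kinase domain (aa 886–1187) with 8 μM Omnia Y12 peptide, 10 μM (Km app) or 1 mM ATP, pH 7.4 HEPES/10 mM MgCl2, 2% DMSO. Fluorescence (ex 360/em 485 nm) every 50 s for 45 min; IC50 from 4-parameter fit of POC, top dose 10 μM.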

Assay [2] deals with T2, JAK1 (Homo sapiens, UniProt P23458).
T2 construct: purchased Invitrogen Corporation, Carlsbad, Calif; PV4775
In words: JAK1 Inhibition Assay (Omnia kinase fluorescence peptide substrate assay). To be noted: averaged IC50 ranges; assay of Example B; 40 μM (Km app) or 1 mM ATP, 15 nM JAK1.

The target in assay [3] is T3, JAK2 (Homo sapiens, UniProt O60674).
T3 construct: purchased Invitrogen Corporation, Carlsbad, Calif; PV4288
In words: JAK2 Inhibition Assay (Omnia kinase fluorescence peptide substrate assay). To be noted: averaged IC50 ranges; assay of Example C; 25 μM (Km app) or 1 mM ATP, 5 nM JAK2. In a few lines: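 5 nM JAK2 phosphorylated 10 μM Omnia Y7 peptide with ATP at 25 μM (Km app) or 1 mM, in 25 mM HEPES pH 7.4, 10 mM MgCl2, 0.01% Triton X-100, 1 mM DTT, 2% DMSO. Fluorescence (360/485 nm) was read every 50 s for 45 min. 10-point 3-fold series from 10 μM; POC versus uninhibited and background controls, 4-parameter logistic IC50.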

Assay [4] has as its target T4, JAK3 (Homo sapiens, UniProt P52333).
T4 construct: purchased Invitrogen Corporation, Carlsbad, Calif; PV4080
T4 sequence (P52333 1-1124): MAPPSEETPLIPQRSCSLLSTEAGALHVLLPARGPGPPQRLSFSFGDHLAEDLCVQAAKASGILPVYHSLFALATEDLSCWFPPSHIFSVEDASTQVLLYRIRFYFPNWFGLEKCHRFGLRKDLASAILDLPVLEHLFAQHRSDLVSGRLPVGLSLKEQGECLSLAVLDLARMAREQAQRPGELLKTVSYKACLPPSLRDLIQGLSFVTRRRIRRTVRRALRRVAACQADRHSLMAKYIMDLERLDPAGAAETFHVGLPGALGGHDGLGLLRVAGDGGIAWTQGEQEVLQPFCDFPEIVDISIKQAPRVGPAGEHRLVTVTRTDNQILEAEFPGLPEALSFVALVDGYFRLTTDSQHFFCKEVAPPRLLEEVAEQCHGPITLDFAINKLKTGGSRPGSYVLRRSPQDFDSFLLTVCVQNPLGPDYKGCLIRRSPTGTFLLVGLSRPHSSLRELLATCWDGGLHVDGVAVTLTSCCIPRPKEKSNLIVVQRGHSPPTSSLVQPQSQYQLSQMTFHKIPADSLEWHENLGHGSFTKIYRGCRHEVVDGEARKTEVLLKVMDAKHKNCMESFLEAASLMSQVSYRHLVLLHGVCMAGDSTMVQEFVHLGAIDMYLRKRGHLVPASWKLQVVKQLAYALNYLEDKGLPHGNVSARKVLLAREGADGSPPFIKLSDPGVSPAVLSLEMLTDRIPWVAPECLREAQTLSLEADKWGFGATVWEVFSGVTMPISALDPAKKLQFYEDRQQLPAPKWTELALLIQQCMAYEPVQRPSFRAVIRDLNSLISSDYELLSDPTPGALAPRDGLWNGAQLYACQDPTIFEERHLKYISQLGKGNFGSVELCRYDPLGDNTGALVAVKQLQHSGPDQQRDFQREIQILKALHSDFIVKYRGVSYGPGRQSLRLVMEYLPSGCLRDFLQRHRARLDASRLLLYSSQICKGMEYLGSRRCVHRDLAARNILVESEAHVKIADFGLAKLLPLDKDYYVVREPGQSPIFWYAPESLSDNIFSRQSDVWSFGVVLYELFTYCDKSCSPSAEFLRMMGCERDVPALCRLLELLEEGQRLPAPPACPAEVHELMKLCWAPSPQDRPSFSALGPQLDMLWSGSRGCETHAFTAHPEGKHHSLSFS
Put plainly: JAK3 Inhibition Assay (Omnia kinase fluorescence peptide substrate assay). To be noted: averaged IC50 ranges; assay of Example D; 10 μM (Km app) or 1 mM ATP, 2.5 nM JAK3. An outline of the steps: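 Kinase at 2.5 nM with 10 µM Omnia Y7 peptide and 10 µM (Km app) or 1 mM ATP in 25 mM HEPES pH 7.4, 10 mM MgCl2, 1 mM DTT, 0.01% Triton X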

T2 sequence (P23458 whole entry): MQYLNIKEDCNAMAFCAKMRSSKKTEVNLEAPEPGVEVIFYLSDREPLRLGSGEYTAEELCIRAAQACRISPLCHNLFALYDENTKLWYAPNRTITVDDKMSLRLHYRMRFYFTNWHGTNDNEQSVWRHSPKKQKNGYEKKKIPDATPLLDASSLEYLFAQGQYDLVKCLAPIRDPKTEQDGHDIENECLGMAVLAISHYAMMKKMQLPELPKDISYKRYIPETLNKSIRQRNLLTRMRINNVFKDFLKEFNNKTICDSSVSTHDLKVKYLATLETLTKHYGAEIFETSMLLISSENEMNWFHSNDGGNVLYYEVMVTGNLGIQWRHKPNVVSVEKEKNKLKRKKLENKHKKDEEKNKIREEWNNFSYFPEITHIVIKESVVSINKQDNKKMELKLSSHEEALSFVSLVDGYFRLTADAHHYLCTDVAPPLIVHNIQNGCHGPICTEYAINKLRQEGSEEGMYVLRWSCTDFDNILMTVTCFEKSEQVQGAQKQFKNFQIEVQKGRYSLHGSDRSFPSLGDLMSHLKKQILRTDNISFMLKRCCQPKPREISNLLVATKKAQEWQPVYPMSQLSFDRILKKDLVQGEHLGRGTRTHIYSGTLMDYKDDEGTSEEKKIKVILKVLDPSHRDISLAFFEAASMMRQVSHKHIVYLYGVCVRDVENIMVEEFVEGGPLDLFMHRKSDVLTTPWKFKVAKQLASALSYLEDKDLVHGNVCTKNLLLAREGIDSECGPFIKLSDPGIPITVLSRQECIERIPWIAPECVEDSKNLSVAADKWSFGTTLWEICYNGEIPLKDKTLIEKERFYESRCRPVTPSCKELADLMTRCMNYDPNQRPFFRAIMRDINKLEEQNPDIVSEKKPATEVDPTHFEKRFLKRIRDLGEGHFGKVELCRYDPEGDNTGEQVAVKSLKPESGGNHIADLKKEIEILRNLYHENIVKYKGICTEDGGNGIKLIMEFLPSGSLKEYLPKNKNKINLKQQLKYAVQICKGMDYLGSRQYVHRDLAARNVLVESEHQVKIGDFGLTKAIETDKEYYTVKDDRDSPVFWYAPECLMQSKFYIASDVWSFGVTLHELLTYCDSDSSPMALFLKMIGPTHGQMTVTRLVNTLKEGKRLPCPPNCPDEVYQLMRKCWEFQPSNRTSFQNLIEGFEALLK
T3 sequence (O60674 whole entry): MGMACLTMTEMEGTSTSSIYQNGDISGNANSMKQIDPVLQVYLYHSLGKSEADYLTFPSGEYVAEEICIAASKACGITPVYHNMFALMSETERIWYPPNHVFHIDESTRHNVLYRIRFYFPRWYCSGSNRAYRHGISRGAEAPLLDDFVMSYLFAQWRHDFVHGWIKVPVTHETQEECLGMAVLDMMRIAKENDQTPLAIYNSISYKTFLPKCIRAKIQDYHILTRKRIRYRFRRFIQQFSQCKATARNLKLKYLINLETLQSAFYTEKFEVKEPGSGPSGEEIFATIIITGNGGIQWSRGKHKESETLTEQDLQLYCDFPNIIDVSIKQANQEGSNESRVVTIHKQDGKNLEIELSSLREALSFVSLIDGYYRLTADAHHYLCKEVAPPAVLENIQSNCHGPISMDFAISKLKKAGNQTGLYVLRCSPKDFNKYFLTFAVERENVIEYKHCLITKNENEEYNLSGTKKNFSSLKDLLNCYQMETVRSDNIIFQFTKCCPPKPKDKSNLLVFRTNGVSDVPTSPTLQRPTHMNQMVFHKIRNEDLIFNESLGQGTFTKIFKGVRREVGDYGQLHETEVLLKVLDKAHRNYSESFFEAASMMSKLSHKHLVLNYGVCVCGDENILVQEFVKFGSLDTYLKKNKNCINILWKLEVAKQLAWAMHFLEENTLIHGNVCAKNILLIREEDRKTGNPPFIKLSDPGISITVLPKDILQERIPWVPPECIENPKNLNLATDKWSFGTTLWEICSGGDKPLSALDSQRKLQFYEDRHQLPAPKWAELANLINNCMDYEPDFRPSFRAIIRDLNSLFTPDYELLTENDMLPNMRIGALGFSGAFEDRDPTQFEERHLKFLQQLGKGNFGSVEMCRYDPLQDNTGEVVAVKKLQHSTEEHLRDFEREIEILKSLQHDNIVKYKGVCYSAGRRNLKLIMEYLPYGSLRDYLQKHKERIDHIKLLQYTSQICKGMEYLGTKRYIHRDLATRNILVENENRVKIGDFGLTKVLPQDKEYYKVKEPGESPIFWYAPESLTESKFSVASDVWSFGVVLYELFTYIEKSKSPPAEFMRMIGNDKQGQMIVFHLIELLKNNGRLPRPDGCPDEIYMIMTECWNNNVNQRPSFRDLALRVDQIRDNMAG

The IC50 is the point on the concentration scale where inhibition reaches its midpoint. A higher IC50 goes with weaker potency in that assay. Take `N#CCC1(n2cc(-c3nc(-c4cnn(C5COC5)c4)cc4nccn34)cn2)CN(CC(F)(F)F)C1` [Example 105, 2-(3-(4-(7-(1-(Oxetan-3-yl)-1H-pyrazol-4-yl)imidazo[1,2-c]pyrimidin-5-yl)-1H-pyrazol-1-yl)-1-(2,2,2-trifluoroethyl)azetidin-3-yl)acetonitrile]: the IC50 in assay [1] was below 10 nM; in assay [2], 100 to 1000 nM; in assay [3] it was 10 to 100 nM; in assay [4], above 1000 nM.

In the case of `Cc1nn(CCC#N)cc1-c1nc(-c2cnn(C)c2)cc2nccn12` [Example 106, 3-(3-methyl-4-(7-(1-methyl-1H-pyrazol-4-yl)imidazo[1,2-c]pyrimidin-5-yl)-1H-pyrazol-1-yl)propanenitrile], the concentration for half-maximal inhibition (IC50) in assay [1] is 100 to 1000 nM; in assay [2] it was above 1000 nM; in assay [3] it was 100 to 1000 nM; in assay [4] it was above 1000 nM.

Regarding `Cc1c(-c2nc(-c3cnn(C)c3)cc3nccn23)cnn1CCC#N` [Example 107, 3-(5-methyl-4-(7-(1-methyl-1H-pyrazol-4-yl)imidazo[1,2-c]pyrimidin-5-yl)-1H-pyrazol-1-yl)propanenitrile], the IC50 in assay [1] is 100 to 1000 nM; in assay [2] it was above 1000 nM; in assay [3] it was above 1000 nM; in assay [4], above 1000 nM.

With `Cc1nn(C2(CC#N)CN(CC(F)(F)F)C2)cc1-c1nc(-c2cnn(C)c2)cc2nccn12` [Example 108, 2-(3-(3-methyl-4-(7-(1-methyl-1H-pyrazol-4-yl)imidazo[1,2-c]pyrimidin-5-yl)-1H-pyrazol-1-yl)-1-(2,2,2-trifluoroethyl)azetidin-3-yl)acetonitrile], the IC50 in assay [1] is 10 to 100 nM; in assay [2] it was above 1000 nM; in assay [3] it was 100 to 1000 nM; in assay [4], above 1000 nM.

For `Cc1nn(C(CC#N)C2CC2)cc1-c1nc(-c2cnn(C)c2)cc2nccn12` (stereo not drawn) [Example 109, 3-Cyclopropyl-3-(3-methyl-4-(7-(1-methyl-1H-pyrazol-4-yl)imidazo[1,2-c]pyrimidin-5-yl)-1H-pyrazol-1-yl)propanenitrile], the IC50 is 10 to 100 nM in assay [1], above 1000 nM in assay [2], 100 to 1000 nM in assay [3] and above 1000 nM in assay [4].

As for `CN1CCC(c2ccc(-c3cc4nccn4c(-c4cnn(C(CC#N)C5CCCC5)c4)n3)cc2)CC1` (stereo not drawn) [Example 110, 3-Cyclopentyl-3-(4-(7-(4-(1-methylpiperidin-4-yl)phenyl)imidazo[1,2-c]pyrimidin-5-yl)-1H-pyrazol-1-yl)propanenitrile], the IC50 in assay [1] was below 10 nM; in assay [2] it was 10 to 100 nM; in assay [3], 10 to 100 nM; in assay [4], 100 to 1000 nM.

In the case of `N#CCC(C1CCCC1)n1cc(-c2nc(-c3ccc(N4CCOCC4)cc3)cc3nccn23)cn1` (stereo not drawn) [Example 113, 3-Cyclopentyl-3-(4-(7-(4-morpholinophenyl)imidazo[1,2-c]pyrimidin-5-yl)-1H-pyrazol-1-yl)propanenitrile], the IC50 in assay [1] was below 10 nM; in assay [2], 10 to 100 nM; in assay [3] it was 10 to 100 nM; in assay [4], 100 to 1000 nM.

For the molecule `CC(C)(CC#N)n1cc(-c2nc(-c3ccc(N4CCOCC4)cc3)cc3nccn23)cn1` [Example 116, 3-methyl-3-(4-(7-(4-morpholinophenyl)imidazo[1,2-c]pyrimidin-5-yl)-1H-pyrazol-1-yl)butanenitrile], the IC50 in assay [1] is 10 to 100 nM; in assay [2] it was 100 to 1000 nM; in assay [3], 100 to 1000 nM; in assay [4], above 1000 nM.

As to `N#CCC(C1CC1)n1cc(-c2nc(-c3ccc(N4CCOCC4)cc3)cc3nccn23)cn1` (stereo not drawn) [Example 117, 3-cyclopropyl-3-(4-(7-(4-morpholinophenyl)imidazo[1,2-c]pyrimidin-5-yl)-1H-pyrazol-1-yl)propanenitrile], the IC50 in assay [1] is below 10 nM; in assay [2], 10 to 100 nM; in assay [3], 10 to 100 nM; in assay [4], 100 to 1000 nM.
